Values joined by “and” are separate entries in the source; they are usually repeats but may differ in a detail not shown here. Equal values may be shown once. Toxic doses and inconclusive results are not listed.
Tested on: L1210 leukemia ip in BDF1 mice, survival T/C
Assay: NCI In Vivo Anticancer Drug Screen. Data for tumor model L1210 Leukemia (intraperitoneal) in B6D2F1 (BDF1) mice
Details: endpoint: mean survival time, higher = longer survival
Outline: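 Each compound was tested against a transplantable tumor grown in mice. The endpoint was survival, with treated animals benchmarked against vehicle controls as a simple ratio.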

[1] = dose: 50.0 mg/kg/injection, schedule: Q01DX009 (ip), vehicle: saline with Tween-80
[2] = dose: 200.0 mg/kg/injection, schedule: Q01DX009 (ip), vehicle: saline with Tween-80
[3] = dose: 100.0 mg/kg/injection, schedule: Q01DX009 (ip), vehicle: saline with Tween-80
[4] = dose: 100.0 mg/kg/injection, schedule: Q04DX003 (ip), vehicle: other
[5] = dose: 200.0 mg/kg/injection, schedule: Q04DX003 (ip), vehicle: other
[6] = dose: 100.0 mg/kg/injection, schedule: Q04DX003 (ip), vehicle: saline with Tween-80
[7] = dose: 200.0 mg/kg/injection, schedule: Q04DX003 (ip), vehicle: saline with Tween-80
[8] = dose: 400.0 mg/kg/injection, schedule: Q04DX003 (ip), vehicle: saline with Tween-80
[9] = dose: 100.0 mg/kg/injection, schedule: Q04DX002 (ip), vehicle: saline with Tween-80
[10] = dose: 200.0 mg/kg/injection, schedule: Q04DX002 (ip), vehicle: saline with Tween-80
[11] = dose: 400.0 mg/kg/injection, schedule: Q01DX009 (ip), vehicle: saline with Tween-80
[12] = dose: 400.0 mg/kg/injection, schedule: Q04DX002 (ip), vehicle: saline with Tween-80
[13] = dose: 10.0 mg/kg/injection, schedule: Q01DX001 (ip), vehicle: saline
[14] = dose: 20.0 mg/kg/injection, schedule: Q01DX001 (ip), vehicle: saline
[15] = dose: 100.0 mg/kg/injection, schedule: Q01DX009 (ip), vehicle: Klucel (hydroxypropylcellulose) (HPC)
[16] = dose: 100.0 mg/kg/injection, schedule: Q04DX003 (ip), vehicle: Klucel (hydroxypropylcellulose) (HPC)
[17] = dose: 200.0 mg/kg/injection, schedule: Q04DX003 (ip), vehicle: Klucel (hydroxypropylcellulose) (HPC)
[18] = dose: 400.0 mg/kg/injection, schedule: Q04DX003 (ip), vehicle: Klucel (hydroxypropylcellulose) (HPC)
[19] = dose: 100.0 mg/kg/injection, schedule: Q04DX002 (ip), vehicle: Klucel (hydroxypropylcellulose) (HPC)
[20] = dose: 200.0 mg/kg/injection, schedule: Q04DX002 (ip), vehicle: Klucel (hydroxypropylcellulose) (HPC)

`CNS(=O)(=O)c1ncnc2nc[nH]c12` was tested, and the T/C (dose: 3.0 mg/kg/injection, schedule: Q01DX Z (ip), vehicle: carboxymethylcellulose (CMC)) was 113 % of control, the T/C (dose: 6.0 mg/kg/injection, schedule: Q01DX Z (ip), vehicle: carboxymethylcellulose (CMC)) was 115 % of control and the T/C (dose: 12.0 mg/kg/injection, schedule: Q01DX Z (ip), vehicle: carboxymethylcellulose (CMC)) was 119 % of control. For the same compound, the T/C (dose: 22.0 mg/kg/injection, schedule: Q01DX Z (ip), vehicle: carboxymethylcellulose (CMC)) was 100 % of control, the T/C (dose: 25.0 mg/kg/injection, schedule: Q01DX Z (ip), vehicle: carboxymethylcellulose (CMC)) was 117 % of control and the T/C (dose: 33.0 mg/kg/injection, schedule: Q01DX Z (ip), vehicle: carboxymethylcellulose (CMC)) was 100 % of control. The T/C [1] was 115 % of control, the T/C (dose: 50.0 mg/kg/injection, schedule: Q01DX Z (ip), vehicle: carboxymethylcellulose (CMC)) was 121 % of control and the T/C (dose: 75.0 mg/kg/injection, schedule: Q01DX Z (ip), vehicle: carboxymethylcellulose (CMC)) was 121 % of control. For the same compound, the T/C (dose: 100.0 mg/kg/injection, schedule: Q01DX001 (ip), vehicle: acetone) was 100 % of control, the T/C (dose: 132.0 mg/kg/injection, schedule: Q01DX001 (ip), vehicle: saline) was 112 % of control and 88 % of control and the T/C (dose: 132.0 mg/kg/injection, schedule: Q01DX009 (ip), vehicle: saline with Tween-80) was 112 % of control. For the same compound, the T/C (dose: 132.0 mg/kg/injection, schedule: Q01DX009 (ip), vehicle: saline) was 110 % of control, the T/C (dose: 132.0 mg/kg/injection, schedule: Q04DX003 (ip), vehicle: saline) was 121 % of control and the T/C (dose: 200.0 mg/kg/injection, schedule: Q01DX001 (ip), vehicle: acetone) was 182 % of control. The T/C (dose: 200.0 mg/kg/injection, schedule: Q01DX001 (ip), vehicle: saline) was 103 % of control and 108 % of control, the T/C [2] was 162 % of control and the T/C (dose: 200.0 mg/kg/injection, schedule: Q04DX003 (ip), vehicle: saline) was 122 % of control. The T/C (dose: 300.0 mg/kg/injection, schedule: Q01DX001 (ip), vehicle: saline) was 101 % of control and 103 % of control and the T/C (dose: 300.0 mg/kg/injection, schedule: Q01DX009 (ip), vehicle: saline) was 117 % of control.

In the case of `OC1C2CCC(C2)[CH]1[Hg][Cl]` (stereo unspecified), the T/C (dose: 15.0 mg/kg/injection, schedule: Q01DX001 (ip), vehicle: carboxymethylcellulose (CMC)) is reported as 95 % of control.

In the case of `CC(=O)OC1CCC2(C)C(=CC=C3C2=CCC2(C)C(=O)CCC32)C1` (stereo unspecified), the T/C [1] is reported as 87 % of control, the T/C [3] is reported as 90 % of control and the T/C [2] is reported as 90 % of control.

`O=C(/C=C/c1cccc(Br)c1)c1ccc(Cl)cc1` was tested, and the T/C (dose: 50.0 mg/kg/injection, schedule: Q01DX009 (ip), vehicle: other) was 107 % of control, the T/C (dose: 100.0 mg/kg/injection, schedule: Q01DX009 (ip), vehicle: other) was 92 % of control and the T/C [4] was 89 % of control. For the same compound, the T/C (dose: 200.0 mg/kg/injection, schedule: Q01DX009 (ip), vehicle: other) was 96 % of control and the T/C [5] was 100 % of control.

With `Cc1nc2ccccc2c(=O)n1C(C)(C)CCl` the T/C [6] was 95 % of control, the T/C [7] was 92 % of control and the T/C [8] was 95 % of control.

In the case of `CC(C1SCCCS1)C1SCCCS1`, the T/C (dose: 37.5 mg/kg/injection, schedule: Q04DX002 (ip), vehicle: saline with Tween-80) is reported as 92 % of control, the T/C (dose: 75.0 mg/kg/injection, schedule: Q04DX002 (ip), vehicle: saline with Tween-80) is reported as 92 % of control and the T/C (dose: 150.0 mg/kg/injection, schedule: Q04DX002 (ip), vehicle: saline with Tween-80) is reported as 98 % of control. The T/C (dose: 300.0 mg/kg/injection, schedule: Q04DX002 (ip), vehicle: saline with Tween-80) was 95 % of control.

In the case of `C=CCCCCCCCCC(=O)O` (tested in a mixture with another compound), the T/C (dose: 10.0 mg/kg/injection, schedule: Q01DX001 (ip), vehicle: carboxymethylcellulose (CMC)) is reported as 93 % of control, the T/C (dose: 20.0 mg/kg/injection, schedule: Q01DX001 (ip), vehicle: carboxymethylcellulose (CMC)) is reported as 104 % of control and the T/C (dose: 40.0 mg/kg/injection, schedule: Q01DX001 (ip), vehicle: carboxymethylcellulose (CMC)) is reported as 106 % of control. For the same compound, the T/C (dose: 80.0 mg/kg/injection, schedule: Q01DX001 (ip), vehicle: carboxymethylcellulose (CMC)) was 101 % of control and the T/C (dose: 100.0 mg/kg/injection, schedule: Q01DX001 (ip), vehicle: carboxymethylcellulose (CMC)) was 97 % of control.

In the case of `CSc1ccc(NC(=O)OCC2CC3C=CC2C3)cc1` (stereo unspecified), the T/C [3] is reported as 96 % of control and 92 % of control, the T/C [9] is reported as 89 % of control and the T/C [6] is reported as 95 % of control. For the same compound, the T/C [2] was 94 % of control and 110 % of control, the T/C [10] was 89 % of control and the T/C [7] was 93 % of control. The T/C [11] was 94 % of control and 100 % of control, the T/C [12] was 111 % of control and the T/C [8] was 98 % of control.

In the case of `CC(=O)Nc1ccc2c(ccc3cccc[n+]32)c1`, the T/C [13] is reported as 93 % of control and the T/C [14] is reported as 98 % of control.

With `Cc1ccc(C)n1-c1ccc(S(=O)(=O)c2ccc(NC(=O)CCC(=O)O)cc2)cc1` the T/C [3] was 93 % of control, the T/C [2] was 88 % of control and the T/C [11] was 96 % of control.

In the case of `C=CCN(CC=C)/N=N\c1nc[nH]c1C(=O)OC`, the T/C (dose: 100.0 mg/kg/injection, schedule: Q01DX001 (ip), vehicle: saline with Tween-80) is reported as 100 % of control, the T/C [3] is reported as 109 % of control and the T/C [6] is reported as 98 % of control. The T/C (dose: 200.0 mg/kg/injection, schedule: Q01DX001 (ip), vehicle: saline with Tween-80) was 102 % of control, the T/C [2] was 95 % of control and the T/C [7] was 98 % of control. For the same compound, the T/C (dose: 400.0 mg/kg/injection, schedule: Q01DX001 (ip), vehicle: saline with Tween-80) was 98 % of control, the T/C [11] was 93 % of control and the T/C [8] was 96 % of control.

`S=C1N/N=C/NN/C=N/N1` was tested, and the T/C [13] was 105 % of control and the T/C [14] was 94 % of control.

In the case of `Cc1cccc2c(Cl)c3cccc(C)c3nc12`, the T/C [15] is reported as 96 % of control, the T/C [4] is reported as 95 % of control and the T/C (dose: 200.0 mg/kg/injection, schedule: Q01DX009 (ip), vehicle: Klucel (hydroxypropylcellulose) (HPC)) is reported as 93 % of control. For the same compound, the T/C [5] was 94 % of control, the T/C (dose: 400.0 mg/kg/injection, schedule: Q01DX009 (ip), vehicle: Klucel (hydroxypropylcellulose) (HPC)) was 102 % of control and the T/C (dose: 400.0 mg/kg/injection, schedule: Q04DX003 (ip), vehicle: other) was 97 % of control.

`Nc1c(Br)cc(F)cc1[N+](=O)[O-]` was tested, and the T/C [16] was 97 % of control, the T/C [17] was 96 % of control and the T/C [18] was 96 % of control.

`N#CCCN(CCCN1CCOCC1)C(=S)Nc1ccc(Cl)cc1` was tested, and the T/C [9] was 94 % of control, the T/C [10] was 90 % of control and the T/C [12] was 101 % of control.

For `CC1=NN(c2ccc(S(=O)(=O)O)cc2)C(=O)C1`, the T/C [16] was 89 % of control, the T/C [17] was 98 % of control and the T/C [18] was 91 % of control.

For `O=C(O)c1cc(Br)ccc1I`, the T/C [19] was 104 % of control, the T/C [20] was 97 % of control and the T/C (dose: 400.0 mg/kg/injection, schedule: Q04DX002 (ip), vehicle: Klucel (hydroxypropylcellulose) (HPC)) was 101 % of control.

`C[n+]1c(-c2cc(Cl)cc(Cl)c2)c2cc([N+](=O)[O-])ccc2c2ccccc21` was tested, and the T/C (dose: 50.0 mg/kg/injection, schedule: Q01DX009 (ip), vehicle: water) was 109 % of control, the T/C (dose: 100.0 mg/kg/injection, schedule: Q01DX009 (ip), vehicle: water) was 96 % of control and the T/C (dose: 100.0 mg/kg/injection, schedule: Q04DX003 (ip), vehicle: water) was 92 % of control. The T/C (dose: 200.0 mg/kg/injection, schedule: Q01DX009 (ip), vehicle: water) was 98 % of control, the T/C (dose: 200.0 mg/kg/injection, schedule: Q04DX003 (ip), vehicle: water) was 96 % of control and the T/C (dose: 400.0 mg/kg/injection, schedule: Q04DX003 (ip), vehicle: water) was 93 % of control.

With `NC(N)=NC(N)=Nc1ccccc1Br` the T/C (dose: 50.0 mg/kg/injection, schedule: Q01DX009 (ip), vehicle: Klucel (hydroxypropylcellulose) (HPC)) was 106 % of control, the T/C [15] was 104 % of control and the T/C [19] was 107 % of control. The T/C [16] was 98 % of control, the T/C [20] was 104 % of control and the T/C [17] was 110 % of control.
